Measured values from US20250154144A1 (CHILDREN'S HOSPITAL MEDICAL CENTER, priority 2021, published 2025).
Read-outs that look alike come from different tables or passages of the source.

Columns and labels:
FLT3 D835Y = biological target: T1, FLT3 D835Y (Homo sapiens, UniProt P36888, D835Y); experiment: DiscoverX KINOMEscan competition binding, FLT3 D835Y
T1 construct: purchased DiscoverX (KINOMEscan)
T1 sequence (P36888 27-993 D835Y): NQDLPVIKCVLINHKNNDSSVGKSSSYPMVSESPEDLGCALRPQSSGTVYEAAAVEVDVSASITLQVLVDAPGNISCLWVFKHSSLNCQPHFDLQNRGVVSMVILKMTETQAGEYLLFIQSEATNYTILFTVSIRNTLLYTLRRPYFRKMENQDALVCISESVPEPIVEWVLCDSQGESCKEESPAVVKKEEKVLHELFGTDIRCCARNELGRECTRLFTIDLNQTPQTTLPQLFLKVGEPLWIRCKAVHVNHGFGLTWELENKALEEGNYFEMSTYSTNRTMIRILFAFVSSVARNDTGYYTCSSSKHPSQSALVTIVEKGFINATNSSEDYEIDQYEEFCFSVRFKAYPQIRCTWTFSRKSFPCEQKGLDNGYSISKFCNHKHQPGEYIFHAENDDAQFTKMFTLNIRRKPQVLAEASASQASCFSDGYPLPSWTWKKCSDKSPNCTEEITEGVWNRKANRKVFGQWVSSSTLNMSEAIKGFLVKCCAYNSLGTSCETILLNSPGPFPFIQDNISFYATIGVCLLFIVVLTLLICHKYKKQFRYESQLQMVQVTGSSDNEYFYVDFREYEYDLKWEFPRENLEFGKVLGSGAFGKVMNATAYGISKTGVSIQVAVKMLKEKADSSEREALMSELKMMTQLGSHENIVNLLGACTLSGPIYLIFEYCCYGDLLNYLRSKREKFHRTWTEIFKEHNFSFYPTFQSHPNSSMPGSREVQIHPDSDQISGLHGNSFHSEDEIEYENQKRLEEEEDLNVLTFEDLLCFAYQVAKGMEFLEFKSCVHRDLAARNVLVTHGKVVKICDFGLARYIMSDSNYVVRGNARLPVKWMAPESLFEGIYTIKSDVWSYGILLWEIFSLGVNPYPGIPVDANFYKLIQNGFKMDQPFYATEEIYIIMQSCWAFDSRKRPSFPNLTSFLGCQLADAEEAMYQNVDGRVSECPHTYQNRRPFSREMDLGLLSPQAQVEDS

THP1 cells = experiment: Combination drug screening, Cell Titer Glo, 10 × 10 matrix, THP1 cells; format: cell-based; conditions: THP1 cells; for Excess HSA Score: 10 × 10
MOLM14(D835Y) cells = format: cell-based; conditions: MOLM14(D835Y) cells; for Excess HSA Score: 10 × 10
[1] = combination with (+)-BAY-1251152
[2] = combination with Eprenetapopt/APR-246
[3] = combination with Venetoclax (ABT-199)

CC(O)(c1cn2c(-c3ccnc(N[C@H]4CNCC[C@@H]4F)n3)cnc2cn1)C(F)(F)F (single isomer, unassigned) [Compound 72]
Kd (FLT3 D835Y): 690 pM
Excess HSA Score (THP1 cells; [1]): −155.7
Excess HSA Score (THP1 cells; combination with AMG-232): 364
Excess HSA Score (THP1 cells; combination with AZD-5363): −371.3
Excess HSA Score (THP1 cells; [2]): 594.2926
Excess HSA Score (THP1 cells; combination with Ivosidenib): 175.5
Excess HSA Score (THP1 cells; combination with Lenalidomide): 175.9
Excess HSA Score (THP1 cells; combination with Palbociclib): −319
Excess HSA Score (THP1 cells; combination with Prednisolone): 201.6
Excess HSA Score (THP1 cells; combination with SNDX-5613): 342.4
Excess HSA Score (THP1 cells; combination with TNO-155): 908.1
Excess HSA Score (THP1 cells; combination with Trametinib): 354.3
Excess HSA Score (THP1 cells; combination with Ulixertinib): 1146
Excess HSA Score (THP1 cells; [3]): −1130
Comments (THP1 cells; combination with Ivosidenib): Antagonistic
Comments (THP1 cells; [3]): Synergistic
Excess HSA Score (MOLM14(D835Y) cells; [1]): 179
Excess HSA Score (MOLM14(D835Y) cells; combination with AMG-232): −165.4
Excess HSA Score (MOLM14(D835Y) cells; combination with AZD-5363): −687.9
Excess HSA Score (MOLM14(D835Y) cells; [2]): −80.14
Excess HSA Score (MOLM14(D835Y) cells; combination with Ivosidenib): −168.3
Excess HSA Score (MOLM14(D835Y) cells; combination with Lenalidomide): 407.4
Excess HSA Score (MOLM14(D835Y) cells; combination with Palbociclib): −390.1
Excess HSA Score (MOLM14(D835Y) cells; combination with Prednisolone): 717.2
Excess HSA Score (MOLM14(D835Y) cells; combination with SNDX-5613): −77.23
Excess HSA Score (MOLM14(D835Y) cells; combination with TNO-155): −797.6
Excess HSA Score (MOLM14(D835Y) cells; combination with Trametinib): 218.5
Excess HSA Score (MOLM14(D835Y) cells; combination with Ulixertinib): 672.6
Excess HSA Score (MOLM14(D835Y) cells; [3]): −1396
Comments (MOLM14(D835Y) cells; [1]): Antagonistic
Comments (MOLM14(D835Y) cells; [3]): Synergistic

COc1cc2ncc(-c3cncc(N[C@H]4CNC[C@@H]4F)n3)n2nc1C1CC1 [Compound 22, 6-(6-cyclopropyl-7-methoxyimidazo[1,2-b]pyridazin-3-yl)-N-((3S,4S)-4-fluoropyrrolidin-3-yl)pyrazin-2-amine]
Kd (FLT3 D835Y): 600 pM
